From patent publication US20070010671A1, “Novel quinazoline derivatives and methods of treatment related to the use thereof” (priority 2003, published 2007) come the findings set out here.

Each structure is given as a SMILES string. Where only a bound is given, the exact number is not on record here.

This test has as its target MCH receptor (Homo sapiens, UniProt Q99705). Kind of test: High throughput functional screening FLIPR/FDSS6000: inhibition of MCH-evoked intracellular Ca2+ changes. It is filed as cell-based. The note with it: class by percent of control at 10^-7 M or by IC50; read-out: class. The method in brief:
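Fluo4 fluorescence (Ex 488 nm, Em 530 nm) tracked MCH-evoked [Ca2+]i transients over 290 s by FLIPR or FDSS. Cells carried a constitutively active, non-endogenous receptor version. Compounds were added 3 min before a 50 nM MCH challenge.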

Take `CN(C)c1nc(N[C@H]2CC[C@@H](NC(=S)Nc3cc(C(F)(F)F)cc(C(F)(F)F)c3)CC2)nc2ccccc12` [compound 155]: the IC50 was more than 200 nM.

For the molecule `CN(C)c1nc(N[C@H]2CC[C@@H](NC(=S)NCc3ccccc3)CC2)nc2ccccc12` [compound 156], the IC50 is more than 200 nM.

For the molecule `CN(C)c1nc(N[C@H]2CC[C@@H](NC(=S)Nc3cccc(Br)c3)CC2)nc2ccccc12` [compound 157, N-(3-bromopheny)-N′-(cis-4-{[4-(dimethylamino)quinazolin-2-yl]amino}cyclohexyl)thiourea], the IC50 was more than 200 nM.

As for `CN(C)c1nc(N[C@H]2CC[C@@H](NC(=S)Nc3ccc(Br)cc3)CC2)nc2ccccc12` [compound 158, N-(4-bromophenyl)-N′-(cis-4-{[4-(dimethylamino)quinazolin-2-yl]amino}cyclohexyl)thiourea], the IC50 is less than 50 nM.

For the molecule `CCCCNC(=S)N[C@H]1CC[C@@H](Nc2nc(N(C)C)c3ccccc3n2)CC1` [compound 159], the IC50 is more than 200 nM.

As for `CN(C)c1nc(N[C@H]2CC[C@@H](NC(=S)Nc3ccc(C#N)cc3)CC2)nc2ccccc12` [compound 160, N-(4-cyanophenyl)-N′-(cis-4-{[4-(dimethylamino)quinazolin-2-yl]amino}cyclohexyl)thiourea], the IC50 is less than 50 nM.

Consider `CN(C)c1nc(N[C@H]2CC[C@@H](NC(=S)NC3CCCCC3)CC2)nc2ccccc12` [compound 161, N-cyclohexyl-N′-(cis-4-{[4-(dimethylamino)quinazolin-2-yl]amino}cyclohexyl)thiourea], for which the IC50 lay in the range of 50 to 200 nM.

Regarding `CN(C)c1nc(N[C@H]2CC[C@@H](NC(=S)NC3CCCC3)CC2)nc2ccccc12` [compound 162, N-cyclopentyl-N′-(cis-4-{[4-(dimethylamino)quinazolin-2-yl]amino}cyclohexyl)thiourea], the IC50 was 50 to 200 nM.

Consider `CN(C)c1nc(N[C@H]2CC[C@@H](NC(=S)Nc3cccc(Cl)c3)CC2)nc2ccccc12` [compound 163], for which the IC50 is more than 200 nM.

In the case of `CN(C)c1nc(N[C@H]2CC[C@@H](NC(=S)Nc3ccc(Cl)cc3)CC2)nc2ccccc12` [compound 164], the IC50 fell in the range of 50 to 200 nM.

Consider `CN(C)c1nc(N[C@H]2CC[C@@H](NC(=S)Nc3ccc(Cl)cc3Cl)CC2)nc2ccccc12` [compound 165, N-(2,4-dichlorophenyl)-N′-(cis-4-{[4-(dimethylamino)quinazolin-2-yl]amino}cyclohexyl)thiourea], for which the IC50 is less than 50 nM.

As for `COc1ccc(NC(=S)N[C@H]2CC[C@@H](Nc3nc(N(C)C)c4ccccc4n3)CC2)c(OC)c1` [compound 166], the IC50 was less than 50 nM.

`CN(C)c1nc(N[C@H]2CC[C@@H](NC(=S)Nc3cc(F)ccc3F)CC2)nc2ccccc12` [compound 167]: the IC50 was more than 200 nM.

On to `CN(C)c1nc(N[C@H]2CC[C@@H](NC(=S)Nc3cc(Cl)ccc3Cl)CC2)nc2ccccc12` [compound 168], for which the IC50 is more than 200 nM.

On to `Cc1cccc(C)c1NC(=S)N[C@H]1CC[C@@H](Nc2nc(N(C)C)c3ccccc3n2)CC1` [compound 169, N-(cis-4-{[4-(dimethylamino)quinazolin-2-yl]amino}cyclohexyl)-N′-(2,6-dimethylphenyl)thiourea], for which the IC50 is less than 50 nM.

As for `CN(C)c1nc(N[C@H]2CC[C@@H](NC(=S)Nc3ccc(Cl)c(Cl)c3)CC2)nc2ccccc12` [compound 170], the IC50 is more than 200 nM.

With `CN(C)c1nc(N[C@H]2CC[C@@H](NC(=S)Nc3c(Cl)cccc3Cl)CC2)nc2ccccc12` [compound 171], the IC50 is more than 200 nM.

Turning to `CCOc1ccc(NC(=S)N[C@H]2CC[C@@H](Nc3nc(N(C)C)c4ccccc4n3)CC2)cc1` [compound 172], the IC50 is more than 200 nM.

On to `CCc1cccc(C(C)C)c1NC(=S)N[C@H]1CC[C@@H](Nc2nc(N(C)C)c3ccccc3n2)CC1` [compound 173, N-(cis-4-{[4-(dimethylamino)quinazolin-2-yl]amino}cyclohexyl)-N′-(2-ethyl-6-isoprophylphenyl)thiourea], for which the IC50 was less than 50 nM.

In the case of `CN(C)c1nc(N[C@H]2CC[C@@H](NC(=S)NCc3ccco3)CC2)nc2ccccc12` [compound 174], the IC50 was more than 200 nM.

Take `CN(C)c1nc(N[C@H]2CC[C@@H](NC(=S)Nc3ccc(F)cc3)CC2)nc2ccccc12` [compound 175, N-(cis-4-{[4-(dimethylamino)quinazolin-2-yl]amino}cyclohexyl)-N′-(4-fluorophenyl)thiourea]: the IC50 fell in the range of 50 to 200 nM.

In the case of `CCCCCCNC(=S)N[C@H]1CC[C@@H](Nc2nc(N(C)C)c3ccccc3n2)CC1` [compound 176, N-(cis-4-{[4-(dimethylamino)quinazolin-2-yl]amino}cyclohexyl)-N′-hexylthiourea], the IC50 lay in the range of 50 to 200 nM.

`CCC[C@H]1CC[C@H](c2ccc(NC(=S)N[C@H]3CC[C@@H](Nc4nc(N(C)C)c5ccccc5n4)CC3)cc2)CC1` [compound 177]: the IC50 is more than 200 nM.

With `CC(C)CNC(=S)N[C@H]1CC[C@@H](Nc2nc(N(C)C)c3ccccc3n2)CC1` [compound 178, N-(cis-4-{[4-(dimethylamino)quinazolin-2-yl]amino}cyclohexyl)-N′-isobutylthiourea], the IC50 lay within 50 to 200 nM.

As for `COc1ccc(-c2ccccc2)cc1NC(=S)N[C@H]1CC[C@@H](Nc2nc(N(C)C)c3ccccc3n2)CC1` [compound 179, N-(cis-4-{[4-(dimethylamino)quinazolin-2-yl]amino}cyclohexyl)-N′-(4-methoxybiphenyl-3-yl)thiourea], the IC50 lay in the range of 50 to 200 nM.

For `CN(C)c1nc(N[C@H]2CC[C@@H](NC(=S)NCc3ccc4c(c3)OCO4)CC2)nc2ccccc12` [compound 180, N-(1,3-benzodioxol-5-ylmethyl)-N′-(cis-4-{[4-(dimethylamino)quinazolin-2-yl]amino}cyclohexyl)thiourea], the IC50 was 50 to 200 nM.

As for `Cc1cccc(NC(=S)N[C@H]2CC[C@@H](Nc3nc(N(C)C)c4ccccc4n3)CC2)c1` [compound 181], the IC50 is more than 200 nM.

For the molecule `CSc1ccc(NC(=S)N[C@H]2CC[C@@H](Nc3nc(N(C)C)c4ccccc4n3)CC2)cc1` [compound 182, N-(cis-4-{[4-(dimethylamino)quinazolin-2-yl]amino}cyclohexyl)-N′-[4-(methylthio)phenyl]thiourea], the IC50 was 50 to 200 nM.

As for `COc1ccc(NC(=S)N[C@H]2CC[C@@H](Nc3nc(N(C)C)c4ccccc4n3)CC2)cc1` [compound 183, N-(cis-4-{[4-(dimethylamino)quinazolin-2-yl]amino}cyclohexyl)-N′-(4-methoxyphenyl)thiourea], the IC50 lay in the range of 50 to 200 nM.

As to `C=C(C)CNC(=S)N[C@H]1CC[C@@H](Nc2nc(N(C)C)c3ccccc3n2)CC1` [compound 184], the IC50 is more than 200 nM.

As to `COc1ccccc1NC(=S)N[C@H]1CC[C@@H](Nc2nc(N(C)C)c3ccccc3n2)CC1` [compound 185, N-(cis-4-{[4-(dimethylamino)quinazolin-2-yl]amino}cyclohexyl)-N′-(2-methoxyphenyl)thiourea], the IC50 is less than 50 nM.

As for `CNC(=S)N[C@H]1CC[C@@H](Nc2nc(N(C)C)c3ccccc3n2)CC1` [compound 186], the IC50 was more than 200 nM.

With `CN(C)c1nc(N[C@H]2CC[C@@H](NC(=S)Nc3cccc4ccccc34)CC2)nc2ccccc12` [compound 187, N-(cis-4-{[4-(dimethylamino)quinazolin-2-yl]amino}cyclohexyl)-N′-1-naphthylthiourea], the IC50 was less than 50 nM.

Consider `CN(C)c1nc(N[C@H]2CC[C@@H](NC(=S)Nc3cccc([N+](=O)[O-])c3)CC2)nc2ccccc12` [compound 188], for which the IC50 was more than 200 nM.

Consider `CN(C)c1nc(N[C@H]2CC[C@@H](NC(=S)Nc3ccc([N+](=O)[O-])cc3)CC2)nc2ccccc12` [compound 189], for which the IC50 is 50 to 200 nM.

As for `CN(C)c1nc(N[C@H]2CC[C@@H](NC(=S)NC(C)(C)CC(C)(C)C)CC2)nc2ccccc12` [compound 190], the IC50 was more than 200 nM.

As for `CN(C)c1nc(N[C@H]2CC[C@@H](NC(=S)Nc3ccccc3)CC2)nc2ccccc12` [compound 191], the IC50 is more than 200 nM.

Take `CN(C)c1nc(N[C@H]2CC[C@@H](NC(=S)Nc3c(F)c(F)c(F)c(F)c3F)CC2)nc2ccccc12` [compound 192, N-(cis-4-{[4-(dimethylamino)quinazolin-2-yl]amino}cyclohexyl)-N′-(pentafluorophenyl)thiourea]: the IC50 is 50 to 200 nM.

Regarding `CCCNC(=S)N[C@H]1CC[C@@H](Nc2nc(N(C)C)c3ccccc3n2)CC1` [compound 193, N-(cis-4-{[4-(dimethylamino)quinazolin-2-yl]amino}cyclohexyl)-N′-propylthiourea], the IC50 was in the range of 50 to 200 nM.

In the case of `CN(C)c1nc(N[C@H]2CC[C@@H](NC(=S)Nc3cccc(C(F)(F)F)c3)CC2)nc2ccccc12` [compound 194], the IC50 is more than 200 nM.

`COc1cc(NC(=S)N[C@H]2CC[C@@H](Nc3nc(N(C)C)c4ccccc4n3)CC2)cc(OC)c1OC` [compound 195, N-(cis-4-{[4-(dimethylamino)quinazolin-2-yl]amino}cyclohexyl)-N′-(3,4,5-trimethoxyphenyl)thiourea]: the IC50 was less than 50 nM.

For the molecule `Cc1ccc(NC(=S)N[C@H]2CC[C@@H](Nc3nc(N(C)C)c4ccccc4n3)CC2)cc1` [compound 197, N-(cis-4-{[4-(dimethylamino)quinazolin-2-yl]amino}cyclohexyl)-N′-(4-methylphenyl)thiourea], the IC50 was 50 to 200 nM.

For the molecule `Cc1ccccc1NC(=S)N[C@H]1CC[C@@H](Nc2nc(N(C)C)c3ccccc3n2)CC1` [compound 198], the IC50 was more than 200 nM.

Take `CN(C)c1nc(N[C@H]2CC[C@@H](NC(=S)NC(C)(C)C)CC2)nc2ccccc12` [compound 199]: the IC50 was more than 200 nM.

For the molecule `CN(C)c1nc(N[C@H]2CC[C@@H](NC(=S)Nc3ccccc3Br)CC2)nc2ccccc12` [compound 201], the IC50 is more than 200 nM.

`CN(C)c1nc(N[C@H]2CC[C@@H](NC(=S)Nc3ccccc3Cl)CC2)nc2ccccc12` [compound 202]: the IC50 was more than 200 nM.
